From the supplement of paper PMC10307832

Legend:
Test in all cases: relative viability (nuclei count vs DMSO), 5 days (fraction); higher = more cells survive
NCI-H1755 = tested on: NCI-H1755
Summary of the method: (§1)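 Each reported value is a median over duplicate plates. It expresses relative viability: treated-well nuclei count divided by vehicle-well nuclei count. Lung cancer cell lines in 1536-well plates were dosed by pin tool a day after seeding, alone with one drug or with a fixed anchor-drug dose plus five library-drug doses (not always all listed) in √10 steps, and nuclei were counted after 5 days.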

NCI-H1915 = tested on: NCI-H1915
Summary of the method: as §1

NCI-H358 = tested on: NCI-H358
Summary of the method: as §1

ABC-1 = tested on: ABC-1
Summary of the method: as §1

NCI-H1993 = tested on: NCI-H1993
Summary of the method: as §1

HOP-62 = tested on: HOP-62
Summary of the method: as §1

NCI-H2023 = tested on: NCI-H2023
Summary of the method: as §1

NCI-H1975 = tested on: NCI-H1975
Summary of the method: as §1

CAL-12T = tested on: CAL-12T
Summary of the method: as §1

NCI-H1666 = tested on: NCI-H1666
Summary of the method: as §1

EPLC-272H = tested on: EPLC-272H
Summary of the method: as §1

EMC-BAC-2 = tested on: EMC-BAC-2
Summary of the method: as §1

HCC-78 = tested on: HCC-78
Summary of the method: as §1

NCI-H2085 = tested on: NCI-H2085
Summary of the method: as §1

NCI-H2126 = tested on: NCI-H2126
Summary of the method: as §1

UMC-11 = tested on: UMC-11
Summary of the method: as §1

LXF-289 = tested on: LXF-289
Summary of the method: as §1

NCI-H3122 = tested on: NCI-H3122
Summary of the method: as §1

NCI-H322M = tested on: NCI-H322M
Summary of the method: as §1

COR-L 105 = tested on: COR-L 105
Summary of the method: as §1

HCC-15 = tested on: HCC-15
Summary of the method: as §1

NCI-H441 = tested on: NCI-H441
Summary of the method: as §1

COc1cc(N2CCC(C(N)=O)CC2)ccc1Nc1nc(N)c(Cl)c(Nc2ccccc2S(=O)(=O)C(C)C)n1 [HG-5-88-01] + C[C@]1(O)C[C@@H](c2nc(-c3ccc4ccc(-c5ccccc5)nc4c3)c3c(N)nccn32)C1 [Linsitinib] (partner 1 µM)
relative viability (NCI-H1755; first compound 0.1265 µM): 0.902 | relative viability (NCI-H1755; first compound 0.4 µM): 1.01 | relative viability (NCI-H1755; first compound 1.265 µM): 0.983 | relative viability (NCI-H1755; first compound 4 µM): 1.09 | relative viability (NCI-H1915; first compound 0.04 µM): 1.09 | relative viability (NCI-H1915; first compound 0.1265 µM): 1.11 | relative viability (NCI-H1915; first compound 0.4 µM): 1.14 | relative viability (NCI-H1915; first compound 1.265 µM): 1.15 | relative viability (NCI-H1915; first compound 4 µM): 0.674 | relative viability (NCI-H358; first compound 0.04 µM): 0.696 | relative viability (NCI-H358; first compound 0.1265 µM): 0.707 | relative viability (NCI-H358; first compound 0.4 µM): 0.625 | relative viability (NCI-H358; first compound 1.265 µM): 0.484 | relative viability (NCI-H358; first compound 4 µM): 0.387 | relative viability (ABC-1; first compound 0.04 µM): 0.679 | relative viability (ABC-1; first compound 0.1265 µM): 0.894 | relative viability (ABC-1; first compound 0.4 µM): 0.815 | relative viability (ABC-1; first compound 1.265 µM): 0.668 | relative viability (ABC-1; first compound 4 µM): 1.01 | relative viability (NCI-H1993; first compound 0.04 µM): 0.807 | relative viability (NCI-H1993; first compound 0.1265 µM): 0.697 | relative viability (NCI-H1993; first compound 0.4 µM): 0.732 | relative viability (NCI-H1993; first compound 1.265 µM): 0.61 | relative viability (NCI-H1993; first compound 4 µM): 0.722 | relative viability (HOP-62; first compound 0.04 µM): 0.978 | relative viability (HOP-62; first compound 0.1265 µM): 1.04 | relative viability (HOP-62; first compound 0.4 µM): 0.821 | relative viability (HOP-62; first compound 1.265 µM): 0.938 | relative viability (HOP-62; first compound 4 µM): 1.23 | relative viability (NCI-H2023; first compound 0.04 µM): 0.695 | relative viability (NCI-H2023; first compound 0.1265 µM): 0.683 | relative viability (NCI-H2023; first compound 0.4 µM): 0.619 | relative viability (NCI-H2023; first compound 1.265 µM): 0.539 | relative viability (NCI-H2023; first compound 4 µM): 0.762 | relative viability (NCI-H1975; first compound 0.04 µM): 0.995 | relative viability (NCI-H1975; first compound 0.1265 µM): 1 | relative viability (NCI-H1975; first compound 0.4 µM): 0.682 | relative viability (NCI-H1975; first compound 1.265 µM): 0.859 | relative viability (NCI-H1975; first compound 4 µM): 0.497 | relative viability (CAL-12T; first compound 0.04 µM): 0.773 | relative viability (CAL-12T; first compound 0.1265 µM): 0.592 | relative viability (CAL-12T; first compound 0.4 µM): 0.78 | relative viability (CAL-12T; first compound 1.265 µM): 0.561 | relative viability (CAL-12T; first compound 4 µM): 0.726 | relative viability (NCI-H1666; first compound 0.04 µM): 0.958 | relative viability (NCI-H1666; first compound 0.1265 µM): 0.882 | relative viability (NCI-H1666; first compound 0.4 µM): 0.93 | relative viability (NCI-H1666; first compound 1.265 µM): 0.76 | relative viability (NCI-H1666; first compound 4 µM): 0.581 | relative viability (EPLC-272H; first compound 0.04 µM): 1.09 | relative viability (EPLC-272H; first compound 0.1265 µM): 1.25 | relative viability (EPLC-272H; first compound 0.4 µM): 1.38 | relative viability (EPLC-272H; first compound 1.265 µM): 1.02 | relative viability (EPLC-272H; first compound 4 µM): 0.264 | relative viability (EMC-BAC-2; first compound 0.04 µM): 0.79 | relative viability (EMC-BAC-2; first compound 0.1265 µM): 0.849 | relative viability (EMC-BAC-2; first compound 0.4 µM): 0.771 | relative viability (EMC-BAC-2; first compound 1.265 µM): 0.758 | relative viability (EMC-BAC-2; first compound 4 µM): 0.851 | relative viability (HCC-78; first compound 0.04 µM): 0.574 | relative viability (HCC-78; first compound 0.1265 µM): 0.401 | relative viability (HCC-78; first compound 0.4 µM): 0.273 | relative viability (HCC-78; first compound 1.265 µM): 0.222 | relative viability (HCC-78; first compound 4 µM): 0.263 | relative viability (NCI-H2085; first compound 0.04 µM): 0.913 | relative viability (NCI-H2085; first compound 0.1265 µM): 0.924 | relative viability (NCI-H2085; first compound 0.4 µM): 0.809 | relative viability (NCI-H2085; first compound 1.265 µM): 0.748 | relative viability (NCI-H2085; first compound 4 µM): 0.92 | relative viability (NCI-H2126; first compound 0.04 µM): 0.641 | relative viability (NCI-H2126; first compound 0.1265 µM): 0.76 | relative viability (NCI-H2126; first compound 0.4 µM): 0.721 | relative viability (NCI-H2126; first compound 1.265 µM): 0.69 | relative viability (NCI-H2126; first compound 4 µM): 0.716 | relative viability (UMC-11; first compound 0.04 µM): 1.03 | relative viability (UMC-11; first compound 0.1265 µM): 0.931 | relative viability (UMC-11; first compound 0.4 µM): 0.698 | relative viability (UMC-11; first compound 1.265 µM): 1.01 | relative viability (UMC-11; first compound 4 µM): 1.1 | relative viability (LXF-289; first compound 0.04 µM): 0.94 | relative viability (LXF-289; first compound 0.1265 µM): 1 | relative viability (LXF-289; first compound 0.4 µM): 0.961 | relative viability (LXF-289; first compound 1.265 µM): 0.973 | relative viability (LXF-289; first compound 4 µM): 1.04 | relative viability (NCI-H3122; first compound 0.04 µM): 0.914 | relative viability (NCI-H3122; first compound 0.1265 µM): 0.379 | relative viability (NCI-H3122; first compound 0.4 µM): 0.197 | relative viability (NCI-H3122; first compound 1.265 µM): 0.2 | relative viability (NCI-H3122; first compound 4 µM): 0.226 | relative viability (NCI-H322M; first compound 0.04 µM): 0.892 | relative viability (NCI-H322M; first compound 0.1265 µM): 0.922 | relative viability (NCI-H322M; first compound 0.4 µM): 1.01 | relative viability (NCI-H322M; first compound 1.265 µM): 0.657 | relative viability (NCI-H322M; first compound 4 µM): 0.858 | relative viability (COR-L 105; first compound 0.04 µM): 0.921 | relative viability (COR-L 105; first compound 0.1265 µM): 0.966 | relative viability (COR-L 105; first compound 0.4 µM): 1.04 | relative viability (COR-L 105; first compound 1.265 µM): 0.961 | relative viability (COR-L 105; first compound 4 µM): 0.751 | relative viability (HCC-15; first compound 0.04 µM): 0.862 | relative viability (HCC-15; first compound 0.1265 µM): 0.837 | relative viability (HCC-15; first compound 0.4 µM): 0.92 | relative viability (HCC-15; first compound 1.265 µM): 0.835 | relative viability (HCC-15; first compound 4 µM): 0.763 | relative viability (NCI-H441; first compound 0.04 µM): 0.662 | relative viability (NCI-H441; first compound 0.1265 µM): 0.536 | relative viability (NCI-H441; first compound 0.4 µM): 0.821 | relative viability (NCI-H441; first compound 1.265 µM): 0.399 | relative viability (NCI-H441; first compound 4 µM): 0.586
